Results from patent publication US20120122982A1, “USE OF PUFAS TO TREAT NERVE DAMAGE” (Equateq Limited, priority 2009, published 2012).

Assays:
Type in all cases: in vivo, rat
diabetic rats [1] = assay: Sensory nerve conduction velocity (NCV) in saphenous nerve of streptozotocin-diabetic rats; details: 2-week daily oral treatment after 6 weeks untreated diabetes, diabetic around 50 m/s, non-diabetic around 60 m/s
Experimental: (§1) Male Sprague-Dawley rats (Aberdeen University colony) were used, which were 19 weeks old at the start of the study. Diabetes was induced by intraperitoneal streptozotocin injection at 40-45 mg kg^−1 freshly dissolved in sterile 0.9% saline solution. This was verified 24 hours later by estimating hyperglycaemia (blood glucose>19.9 mM) and glycosuria, and diabetic state was monitored weekly using test strips for blood (tail vein) and urine glucose levels. Body weight was also monitored daily to check against body weight gain (which would indicate partial recovery of beta cell function and exclude diabetic status).
(§2) After 6 weeks of untreated diabetes, four experimental groups (n=6 per group) were treated for a 2-week period, with a daily oral administration of 13-HODE at a range of dosages (13-Hydoxydienoic acid, Equateq, Isle of Lewis, UK), added to the food and dispersed in a sunflower oil vehicle. Experimental groups were treated with doses of a representative compound of the invention,13-HODE, ranging from 0.01 mg/kg/day to 100 mg/kg/day.
Rats were anaesthetized with thiobutabarbital sodium (50-100 mg kg^−1 i.p.). […]
An experiment was carried out in a similar fashion to Example 1 except that Sensory NCV was measured in the saphenous nerve between groin and mid calf. Direct nerve evoked potentials were recorded at the ankle using a unipolar platinum hook electrode. […]

diabetic rats [2] = assay: Tactile allodynia, electronic von Freys hair apparatus; details: 1 mg/kg/day in food for 2 weeks
Experimental: (§3) Diabetes was induced in mature (19 week old) male Sprague-Dawley by streptozotocin injection (40-45 mg/kg i.p.). The diabetic state was monitored weekly using commercially available test strips for blood (tail vein) and urine glucose levels. Body weight would also be monitored daily. The criteria for the diabetic state are; blood glucose>19.9 mM, glycosuria, and no evidence of body weight gain (which would indicate partial recovery of beta cell function). At the end of the experiments, blood samples would be taken for the determination of plasma glucose.
(§4) Experiments were designed with a reversal (intervention) paradigm: diabetic rats were untreated for 6 weeks to allow the development of neurovascular dysfunction. They were then treated over the next 2 weeks with a dose of 1 mg/kg/day of a representative compound of the invention, 13-HODE, given as a dietary supplement dispersed in the food with a sunflower oil vehicle (50 ml/2.5 kg food). Groups of nondiabetic control rats and diabetic rats treated with vehicle alone were also studied. […]
Tactile allodynia in non-diabetic control rats, diabetic rats treated with vehicle alone and diabetic rats treated with 13-HODE was monitored using an electronic von Freys hair apparatus. […] Allodynia was measured for each foot on one day.

diabetic rats [3] = assay: Sciatic nerve endoneurial blood flow by microelectrode polarography and hydrogen clearance; details: 1 mg/kg/day in food for 2 weeks, flow halved in diabetic rats
Experimental: as §3, with “glucose. […]” for “glucose.”
Sciatic nerve endoneurial blood flows in non-diabetic control rats, diabetic rats treated with vehicle alone and diabetic rats treated with 13-HODE were estimated by microelectrode polarography and hydrogen clearance, using the methods described in Day T J, Lagerlund T D, Low P A (1989) Analysis of H2 clearance curves used to measure blood flow in rat sciatic nerve, J Physiol 414:35-54, and Cameron N E, Cotter M A, Low P A (1991) Nerve blood flow in early experimental diabetes in rats: relation to conduction deficits, Am J Physiol 261:E1-E8. […] The level of anaesthesia was monitored by observing any reaction of blood pressure to manipulation, and supplementary thiobutabarbital anaesthetic given as necessary. […]

diabetic rats [4] = assay: Motor nerve conduction velocity (NCV) in sciatic nerve of streptozotocin-diabetic rats; details: for motor NCV: 2-week daily oral treatment after 6 weeks untreated diabetes, diabetic around 50 m/s, non-diabetic around 60 m/s; for ED50: Rattus norvegicus, calculated from dose response curves of FIG. 13; for times more potent than GLA in restoring motor nerve conduction velocity: from ED50 values
Experimental: as §1, §2
Rats were anaesthetized with thiobutabarbital sodium (50-100 mg kg^−1 i.p.). The trachea was cannulated for artificial respiration.
The sciatic nerve was exposed between the sciatic notch and knee, and Motor nerve conduction velocity (NCV) was measured using concentric bipolar electrodes, as described in Cameron N E, et al (1989) Q J Exp Physiol 74:917-926 and Cameron N E, et al (1991) Diabetes 40:532-539, in the nerve branch to tibialis anterior muscle, which is representative of the whole sciatic nerve in terms of susceptibility to diabetes and treatment effects. Evoked electromyographic (EMG) potentials from each stimulating site were averaged 8 times, and Motor NCV was calculated by dividing the distance between stimulating electrodes by the average latency difference between the onset of EMG potentials evoked from the 2 sites. Nerve temperatures were monitored by thermocouple probes, and maintained in the range 36-38° C. by radiant heat. Body temperature was also maintained around 37° C. using a heated blanket.
Experiments were carried out in similar fashions to Examples 1 and 2 except that 15-HETrE was used instead of 13-HODE.
An experiment was carried out in accordance with the method of Example 1 to determine the effect of GLA, 13-HODE and 15-HETrE on Motor NCV in diabetic rats.

diabetic rats [5] = assay: Hargreaves plantar test, withdrawal latency to noxious thermal stimulation of the foot; details: 1 mg/kg/day in food for 2 weeks
Experimental: as §3
as §4, with “food).” for “food). Groups of nondiabetic control rats and diabetic rats treated with vehicle alone were also studied.”
Before final experiments, nociceptive latencies for withdrawal reflexes to noxious thermal stimulation of the foot were estimated by the Hargreaves plantar test using commercially available equipment (Ugo-Basile, Comerio, Italy). […] After 30 min acclimatization, a constant power infrared stimulus was focused through the glass base onto the sole of the foot and the latency for reflex foot withdrawal automatically recorded via a photoelectric monitor. […]

diabetic rats [6] = assay: Randall-Sellito test, mechanical pressure thresholds; details: 1 mg/kg/day in food for 2 weeks
Experimental: as §3
Experiments were designed with a reversal (intervention) paradigm: diabetic rats were untreated for 6 weeks to allow the development of neurovascular dysfunction. They were then treated over the next 2 weeks with a dose of 1 mg/kg/day of a representative compound of the invention, 13-HODE, given as a dietary supplement dispersed in the food with a sunflower oil vehicle (50 ml/2.5 kg food). Groups of nondiabetic control rats and diabetic rats treated with vehicle alone were also studied.
Groups of non-diabetic control rats, diabetic rats treated with vehicle alone and diabetic rats treated with 13-HODE were obtained as in Example 4.
Before final experiments, nociceptive thresholds for mechanical stimulation were measured by the Randall-Sellito test . […]

diabetic rats [7] = assay: Major pelvic ganglion blood flow by hydrogen clearance; details: 1 mg/kg/day in food for 2 weeks
diabetic rats [8] = assay: Corpus cavernosum pressure responses to cavernous nerve stimulation
Experimental: as §3, §4
Non-diabetic control rats, diabetic rats treated with vehicle alone and diabetic rats treated with 13-HODE were anaesthetized with thiobutabarbital (50-100 mg kg^−1 i.p.). […] Cavernosal pressure responses were recorded in response to 60 s periods of suprathreshold (3-5 mA) nerve stimulation at frequencies in the range 1-32 Hz (stimulus duration 1.5-2 ms). […]

CCCCCC(O)/C=C/C=C\CCCCCCCC(=O)O (stereo not shown) [13-HODE, 13-Hydroxyoctadeca-9Z,11E-dienoic acid]
sensory NCV (diabetic rats [1]): around 60 m/s
tactile allodynia (threshold for foot withdrawal to tactile stimulation) (diabetic rats [2]): almost completely reversed
sciatic nerve endoneurial blood flow (diabetic rats [3]): completely restored
motor NCV (diabetic rats [4]): around 60 m/s
ED50 (diabetic rats [4]): 0.057 mg/kg
times more potent than GLA in restoring motor nerve conduction velocity (diabetic rats [4]): approximately 3000 times
latency of response to thermal stimuli (increased sensitivity to noxious heat) (diabetic rats [5]): completely corrected
sensitivity to mechanical deep pressure (foot withdrawal) (diabetic rats [6]): small but statistically significant improvement
major pelvic ganglion blood flow (diabetic rats [7]): restored to within the nondiabetic range
whole-frequency response curve versus nondiabetic controls (diabetic rats [8]; 1 mg/kg/day for 2 weeks, 2-way ANOVA p<0.01): significantly greater pressure response
cavernosal pressure responses to nerve stimulation: diabetic deficit (diabetic rats [8]; 1 mg/kg/day in food for 2 weeks, stimulation 1-32 Hz): completely corrected

CCCCCC(O)/C=C/C=C\C/C=C\CCCCCCC(=O)O (stereo not shown) [15-HETrE, 15-Hydroxy-eicosa-8Z,11Z,13E-trienoic acid]
sensory NCV (diabetic rats [1]): around 60 m/s
motor NCV (diabetic rats [4]): around 60 m/s
ED50 (diabetic rats [4]): 0.252 mg/kg
times more potent than GLA in restoring motor nerve conduction velocity (diabetic rats [4]): approximately 500 times

CCCCC/C=C\C/C=C\C/C=C\CCCCC(=O)O [GLA, gamma-linolenic acid, reference compound]
ED50 (diabetic rats [4]): 165 mg/kg
